# Assay results published in ChEMBL document CHEMBL1157539, “Thousands of chemical starting points for antimalarial lead identification” (Nature, 2010).
# Test system: Plasmodium falciparum
# Experiment: GSK_TCMDC: Inhibition of Plasmodium falciparum 3D7 in whole erythrocytes, using parasite LDH activity as an index of growth.
# Format: functional, organism-based
# Details: Plasmodium falciparum, 3D7
row,SMILES,XC50 [nM]
1,CC1(C)N=C(N)N=C(N)N1c1cc(Cl)c(Cl)cc1Cl,181
2,CCOc1cc(Cc2cnc(N)nc2N)ccc1OC,1250
3,CCOc1ccc(C(=O)Nc2cc(Br)c3c(c2)CNCC3)cc1Br,990
4,CC(Cc1ccc(NC(=O)CCNCc2ccccc2)cc1)NCCc1cccc(Cl)c1 (stereo not given),147
5,CCN(CC)CCNC(=O)c1ccc(N/C=C2\C(=O)Nc3ccc(S(=O)(=O)Cc4c(Cl)cccc4Cl)cc32)cc1,840
6,COc1ccc(NC(=O)N2CCc3ccc(OCCN(C(C)C)C(C)C)cc32)cc1C(F)(F)F,969
7,COc1cc(Cc2cnc(N)nc2N)cc(OC)c1OCCNC(=O)[C@@H](N)CCC(=O)O,843
8,CC(C)c1cccc(OCC2CCN(c3ncc(C(=O)NC4CC4)cc3Cl)CC2)c1,681
9,COc1cc([N+](=O)[O-])ccc1NC(=O)Nc1ccc(OC(F)(F)F)cc1,1030
10,CC(=O)N(Cc1ccccc1-c1ccc(CNCCc2ccccc2)cc1)C1CCN(Cc2ccccc2)CC1,475
11,FC(F)(F)c1ccc2[nH]c(-c3ccc(-c4ccc(CNCCc5ccncc5)cc4)cc3)nc2c1,129
12,O=C(/C=C/c1ccc(Cl)c(Cl)c1)NCCCCCN1CCC(NC(=O)Nc2cc(F)cc(F)c2)CC1,787
13,Cc1cc(N[C@@H](Cc2ccccc2)C(=O)Nc2ccccc2)nc(NCCc2cccs2)n1,796
14,COc1ccc2nccc(N3CCN(CCNCc4ccc5c(n4)NC(=O)CS5)CC3)c2c1,950
15,COc1ccc(C2CCN(CCCCNC(=O)c3ccc(NC(=O)c4ccc(Cl)cc4)cc3)CC2)c(C)c1,747
16,Cc1ccnc(NC(=O)c2cc(-c3cccc([N+](=O)[O-])c3)nc3onc(C)c23)c1,888
17,Cc1nc(C)c(-c2ccc(Oc3cccc(OC(F)(F)F)c3)cc2)c(O)c1Cl,684
18,Cc1cc(N(C)C)nc(Nc2ccc(NC(=O)CCc3ccccc3)cc2)n1,850
19,CN1CCC(C(=O)Nc2cccc(-c3ccc(-c4nc5cc(F)ccc5[nH]4)cc3)c2)CC1,706
20,Clc1ccc2c(NCCNc3ccnc4cc(Cl)ccc34)ccnc2c1,396
21,CCOc1c(CNCCCNc2cc(O)c3ccccc3n2)cc(Br)cc1OC,1160
22,CCCCOc1ccccc1C(=O)NCc1csc(-c2ccccc2)n1,556
23,COc1ccc2nccc([C@@H](O)CN3CCC(NC(=O)/C=C/c4cccc(-c5ccccc5)c4)CC3)c2c1,248
24,CC(C)CNCc1ccc(-c2ccccc2CN(C(=O)NCCc2ccccc2)C2CCN(Cc3ccccc3)CC2)cc1,878

row,SMILES,XC50 [nM]
1,O=C(Nc1ccc2c(c1)CCN2C1CCN(Cc2csc3ccccc23)C1)c1ccco1 (stereo not given),322
2,CCCN1CCC(NCc2cn(C)nc2-c2ccc(Oc3ccccc3)cc2)CC1,1440
3,O=C(Nc1ccc(Br)cc1)N(CCN1CCOCC1)CC(O)COCc1ccc(F)cc1 (stereo not given),1040
4,CCc1c[nH]c2c(N3CCCCC3=O)cc(C(=O)N[C@@H](Cc3ccccc3)[C@H](O)CNCc3cccc(OC)c3)cc12,169
5,O=C(NCCN1CCOCC1)c1ccc(-c2ccc(CNCCCc3ccccc3)cc2)nc1,782
6,Cc1cccc2nc(-c3cccc(-c4cccc(NC(=O)c5cccnc5Cl)c4)c3)[nH]c12,707
7,Cc1cc(O)c(-c2cc(C(=O)Nc3cccnc3)[nH]n2)cc1C,772
8,O=C(NCCCCN1CCN(c2cccc(Cl)c2Cl)CC1)c1ccc2c(c1)CCN(C1CCC1)CC2,747
9,C#CC[C@@H](NC(N)=O)C(=O)O,189
10,CCNc1cc(C(=O)N[C@@H](Cc2ccccc2)[C@H](O)CNC(C)(C)c2cccc(OC)c2)cc(N2CCCC2=O)c1,143
11,COCCOC(=O)C(=O)c1c(-c2ccccc2)c(-c2ccc(OC)c(OC)c2)c2c3cc(OC)c(OC)cc3ccn12,497
12,Nc1nc(N)c2c(ccc3c2ccn3CCCCO)n1,117
13,FC(F)(F)COc1ccc2ccccc2c1CNCCCCCCNCc1c(OCC(F)(F)F)ccc2ccccc12,352
14,Cc1cccc2nc(-c3ccc(-c4cccc(NC(=O)C(=O)c5cccn5C)c4)cc3)[nH]c12,976
15,COc1ccc2ncc(Cl)c(N3CCC(CCNCc4ccc5c(n4)NC(=O)CS5)CC3)c2c1,961
16,O=C(NC1CC1)c1ccc(N2CCC(Oc3ccc(F)cc3)CC2)nc1,1090
17,Fc1cccc(COc2ccc(Nc3ncnc4sc(C#C[C@H]5CCCN5)cc34)cc2F)c1,871
18,Cc1cccnc1Nc1nc(-c2ccccn2)cs1,687
19,Cc1ccccc1/N=C1\NC(=S)N(c2cccc(C(F)(F)F)c2)C12CCC(C(C)(C)C)CC2 (stereo not given),973
20,CC1(C)N=C(N)N=C(N)N1OCC1COc2ccccc2O1 (stereo not given),35
21,CC(C)(C)OC(=O)Nc1cccc(-c2csc(NC(=N)N)n2)c1,836
22,CC(C)CN(C)Cc1ccc(-c2ccc(-c3nc4ccccc4[nH]3)s2)cc1,752
23,CC1(C)NC(N)=NC(=N)N1OCCSCCON1C(=N)N=C(N)NC1(C)C,50.6
24,O=C(NCC1CC1)C1CCN(C(c2ccc(Cl)cc2)c2ccc(Cl)cc2)CC1,190

row,SMILES,XC50 [nM]
1,O=C(Nc1cccc(-c2cccc(-c3nc4ccccc4[nH]3)c2)c1)c1ccncc1,479
2,COCCN1CCC(N(Cc2ccc(-c3ccc(OC(F)(F)F)cc3)cc2)C(=O)Cn2c(CCc3cccc(F)c3F)cc(=O)c3ccccc32)CC1,1210
3,Cc1onc(-c2ccc(Cl)cc2)c1-c1ccnn1S(=O)(=O)c1ccc(Cl)cc1,711
4,C1=CN(Cc2ccccc2)C=CC1=C1C=Nc2ccccc21,756
5,O=C(NC1CCC(N2CCC(c3ccccc3C(F)(F)F)CC2)CC1)c1cc2ccccc2[nH]1 (stereo not given),521
6,COc1cc2c(Nc3ccc(NC(=O)c4ccccc4)cc3)ncnc2cc1OCCCN1CCOCC1,648
7,COCCNCc1cccc(-c2ccc3c(Nc4ccc(F)cc4Cl)ccnc3c2)c1,680
8,COc1ccc(N2CCN(CCCCNC(=O)c3ccc(NC(=O)c4ccc(Cl)cc4)cc3)CC2)c(C)c1,758
9,CN(C)CCCn1c(N)c(-c2nc3ccccc3[nH]2)c2nc(C#N)c(C#N)nc21,591
10,O=C(NC1CCC(CN2CCC(c3c[nH]c4ccccc34)CC2)CC1)c1csc(-c2ccc(C(F)(F)F)cc2Cl)n1 (stereo not given),827
11,CC(C)(C(=O)Nc1ccc(C2CCC(NCC3CC3)CC2)c(Cl)c1)c1cccc(OC(F)F)c1 (stereo not given),968
12,COc1ccc(Cc2nc(/N=C(\N)Nc3ccccc3)ccc2OC)cc1,852
13,COc1ccc(N2CCN(CCCCNC(=O)c3ccc(NC(=O)c4cc(C(F)(F)F)cc(C(F)(F)F)c4)cc3)CC2)cc1OC,221
14,N#Cc1ccc2c(c1)CCN(CCC1CCC(NC(=O)c3cc4cccc(Cl)c4[nH]3)CC1)CC2 (stereo not given),576
15,CCC(C)(C)c1ccc(OCC(O)CN2CCCCC2)c(C(C)(C)CC)c1 (stereo not given),1300
16,CS(=O)(=O)c1ccc(CNCc2ccc(-c3ccc(-c4nc5cc(F)ccc5[nH]4)s3)cc2)cc1,268
17,O=C(Nc1cccc(C(F)(F)F)c1)c1cccc(S(=O)(=O)NC2CCN(CC3CCCCC3)C2)c1 (stereo not given),588
18,Cn1ccnc1CNC(=O)c1ccc(-c2ccc(-c3nc4cc(C(F)(F)F)ccc4[nH]3)s2)cc1,698
19,CCOC(=O)c1cccc(NC(=O)Nc2cc(C)nc3ccccc23)c1,286
20,FC(F)(F)COc1ccc(CCNCCCCNCCc2ccc(OCC(F)(F)F)c3ccccc23)c2ccccc12,648
21,FC(F)(F)c1ccc2[nH]c(-c3ccc(-c4ccc(CNCC5CCCO5)cc4)s3)nc2c1 (stereo not given),158
22,CC(C)CCNCc1ccc(OCc2cccc(C(=O)Nc3ccccc3)c2)c(I)c1,288
